Consider four compounds from US12209144B2, “Cyclic peptides as proprotein convertase subtilisin/kexin type 9 (PCSK9) inhibitors for the treatment of metabolic disorders” (Novartis AG, priority 2018, dated 2025).

Bridge positions count the residues as written; N and C are the ends. Square brackets hold non-standard residues; d marks the D form. Peptide text beside a SMILES is read from it. Bip = N[C@@H](Cc1ccc(-c2ccccc2)cc1)C(=O)O; NMeE = CN[C@@H](CCC(=O)O)C(=O)O; NMeA = CN[C@@H](C)C(=O)O

Sequence of human PCSK9 (Q8NBP7 153-692): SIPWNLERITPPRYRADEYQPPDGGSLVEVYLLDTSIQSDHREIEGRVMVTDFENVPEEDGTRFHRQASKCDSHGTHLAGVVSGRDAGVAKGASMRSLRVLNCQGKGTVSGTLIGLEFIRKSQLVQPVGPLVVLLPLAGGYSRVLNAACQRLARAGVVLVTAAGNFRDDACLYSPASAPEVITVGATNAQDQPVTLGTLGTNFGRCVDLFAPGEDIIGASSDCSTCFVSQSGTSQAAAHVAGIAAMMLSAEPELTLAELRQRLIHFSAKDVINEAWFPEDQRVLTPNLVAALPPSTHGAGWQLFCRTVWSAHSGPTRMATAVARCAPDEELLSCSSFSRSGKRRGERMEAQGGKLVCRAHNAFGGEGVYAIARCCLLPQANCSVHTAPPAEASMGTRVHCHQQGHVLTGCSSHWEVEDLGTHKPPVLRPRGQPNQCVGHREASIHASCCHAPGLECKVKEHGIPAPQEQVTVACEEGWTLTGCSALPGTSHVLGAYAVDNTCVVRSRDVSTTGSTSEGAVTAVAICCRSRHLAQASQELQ
Sequence of human PCSK9 (Q8NBP7 31-152 partner limits assumed): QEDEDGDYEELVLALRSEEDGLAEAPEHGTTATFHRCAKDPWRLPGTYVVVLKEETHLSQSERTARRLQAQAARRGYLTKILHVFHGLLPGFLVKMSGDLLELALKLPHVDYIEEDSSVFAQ

The test addresses human PCSK9 (Homo sapiens, UniProt Q8NBP7). Put plainly: PCSK9 ligand binding assay (TR-FRET): interference with binding of human PCSK9 to human LDLR. Particulars: PCSK9 FRET assay, efficacy (Amax); 0% = DMSO, 100% = 1 uM unlabeled human PCSK9. A general note: In TR-FRET formats the signal depends on donor and acceptor labels being close together.
On to `CCNC(=O)[C@@H]1CSCC(=O)N[C@@H](Cc2ccccc2)C(=O)N[C@@H](C(C)C)C(=O)N[C@@H](CC(N)=O)C(=O)N[C@@H]([C@@H](C)O)C(=O)N[C@@H]([C@@H](C)O)C(=O)N[C@@H](Cc2ccccc2)C(=O)N(C)[C@@H](C)C(=O)N[C@@H](Cc2ccc(-c3ccccc3)cc2)C(=O)N(C)[C@@H](C)C(=O)N(C)[C@@H](CCC(=O)O)C(=O)N[C@@H](C)C(=O)N2CCC[C@H]2C(=O)N1` [Example 3-1, 3-((3R,9S,12S,15S,18S,21S,24S,27S,30S,33S,36S,39S,44aS)-30-([1,1′-biphenyl]-4-ylmethyl)-15-(2-amino-2-oxoethyl)-9,24-dibenzyl-3-(ethylcarbamoyl)-18,21-bis((R)-1-hydroxyethyl)-12-isopropyl-26,27,32,33,35,39-hexamethyl-1,7,10,13,16,19,22,25,28,31,34,37,40-tridecaoxodotetracontahydro-6H-pyrrolo[2,1-f][1]thia[4,7,10,13,16,19,22,25,28,31,34,37,40]tridecaazacyclodotetracontin-36-yl)propanoic acid] ({CH2CO}-FVNTTF[NMeA][Bip][NMeA][NMeE]APC-NHEt; thioether N-13), for which the Maximum % inhibition was 61%.

Consider `CCNC(=O)[C@@H]1CSCC(=O)N[C@@H](Cc2ccccc2)C(=O)N[C@@H](C(C)C)C(=O)N2CCC[C@H]2C(=O)N[C@@H]([C@@H](C)O)C(=O)N[C@@H]([C@@H](C)O)C(=O)N[C@@H](Cc2ccccc2)C(=O)N(C)[C@@H](C)C(=O)N[C@@H](Cc2ccc(-c3ccccc3)cc2)C(=O)N(C)[C@@H](C)C(=O)N[C@@H](CCC(=O)O)C(=O)N[C@@H](C)C(=O)N2CCC[C@H]2C(=O)N1` [Example 3-2, Ac*-F-V-P-T-T-F-(N-Me)A-B-(N-Me)A-E-A-P-C*-NHEt] ({CH2CO}-FVPTTF[NMeA][Bip][NMeA]EAPC-NHEt; thioether N-13), for which the Maximum % inhibition was found to be 83%.

Compound `CCNC(=O)[C@@H]1CSCC(=O)N[C@@H](Cc2ccccc2)C(=O)N[C@@H](C(C)C)C(=O)N2CCC[C@H]2C(=O)N[C@@H]([C@@H](C)O)C(=O)N[C@@H]([C@@H](C)O)C(=O)N[C@@H](Cc2ccc(-c3ccccc3)cc2)C(=O)N(C)[C@@H](C)C(=O)N[C@@H](Cc2ccc(-c3ccccc3)cc2)C(=O)N(C)[C@@H](C)C(=O)N[C@@H](CCC(=O)O)C(=O)N[C@@H](C)C(=O)N2CCC[C@H]2C(=O)N1` [Example 3-3, Ac*-F-V-P-T-T-B-(N-Me)A-B-(N-Me)A-E-A-P-C*-NHEt] gave a Maximum % inhibition of 87%.

With `CCNC(=O)[C@@H]1CSCC(=O)N[C@@H](Cc2ccccc2)C(=O)N[C@@H](C(C)C)C(=O)N2CCC[C@H]2C(=O)N[C@@H]([C@@H](C)O)C(=O)N[C@@H]([C@@H](C)O)C(=O)N[C@@H](Cc2ccc(-c3ccccc3)cc2)C(=O)N(C)[C@@H](C)C(=O)N[C@@H](Cc2ccc(-c3ccccc3)cc2)C(=O)N(C)[C@@H](C)C(=O)N[C@@H](C)C(=O)N[C@@H](C)C(=O)N2CCC[C@H]2C(=O)N1` [Example 3-4, Ac*-F-V-P-T-T-B-(N-Me)A-B-(N-Me)A-A-A-P-C*-NHEt] ({CH2CO}-FVPTT[Bip][NMeA][Bip][NMeA]AAPC-NHEt; thioether N-13), the Maximum % inhibition was 49%.
